Data as given in patent publication US5120735A, “Antifungal composition” (Kaken Pharmaceutical Co., Ltd., priority 1987, dated 1992).
Read-outs that look alike come from different tables or passages of the source.

Columns and labels:
[1] = test system: Candida albicans MTU 12021; assay: Agar dilution MIC, single and combined use; assay type: cell-based; conditions: for MIC: Candida albicans, read-out: Minimum Inhibitory Concentration (MIC); for Minimum Inhibitory Concentration (MIC) of the agent combined with Compound 1: combined with Compound 1 at 100 μg/ml; for Minimum Inhibitory Concentration (MIC) of miconazole in combination with the arylmethylamine compound: MIC is that of miconazole, compound at a concentration of 100 mg/ml (so in the source); for synergistic effects of combined use with Compound 1: agent combined with Compound 1, Table 1
Method: (1) The effects of the combined use of Compound 1 with various imidazole antifungal agents against Candida albicans MTU 12021 strain were examined as follows. […] Then, distilled water containing 0.1% by weight of Tween 80 was added thereto to obtain drug solutions having a concentration of from 1 to 1,000 μg/ml.
(§1) 1 ml of each drug solution diluted twice was introduced into a sterilized Petri dish, and 8 ml of Sabouraud agar medium was added to prepare a agar plate. Thus, a series of agar plates for the combinations having various concentrations were prepared.
(§2) Candida albicans MTU 12021 strain cultured on a Sabouraud agar medium for 24 hours, was suspended in a saline, and a cells suspension having a concentration of 2×10^6 spores/ml was prepared by counting the number of spores by a hemacytometer. Then, 50 μl of the cells suspension was inoculated to the above agar plates by means of a microplanter (manufactured by Sakuma Seisakusho). The inoculated agar plates were cultured at 37° C. for 48 hours, whereupon the presence or absence of the growth of the strain was examined.
(§3) Culture medium: Sabouraud agar medium
(§4) Culturing condition: 37° C. for 48 hours
(§5) Strain used: Candida albicans MTU 12021

ICR male mice = assay: Acute toxicity, oral, mice; assay type: in vivo; conditions: up to 5,000 mg/kg, ICR male mice of 5 weeks old
Source text: To examine the acute toxicity of the arylmethylamine antifungal agents used in the composition of the present invention, Compounds 1 and 2 were selected, and they were, respectively, suspended in 0.5% methyl cellulose and orally administered to ICR male mice of 5 weeks old (body weight: 26-28 g) at a dose corresponding to the body weight.

[2] = test system: Candida albicans MTU 12021; assay: Disk method (growth inhibition ring); assay type: cell-based; conditions: for effects of combined use with miconazole or ketoconazole: same disk method as Example 1(3)
Method: (3) The effects of the combined use of Compound 1 with miconazole or ketoconazole were examined by a disk method.
Candida albicans MTU 12021 stain was mixed with a Sabouraud agar medium to have a concentration of 5×10^4 spores/ml, and 10 ml thereof was poured into a sterilized Petri dish to obtain an inoculated agar plate.
50 mg of each of Compound 1, miconazole and ketoconazole was impregnated to a disk (Toyo Filter paper of 8 mm in diameter), and the disk was placed on the inoculated agar plate, followed by culturing at 37° C. for 96 hours, whereupon the synergistic effects were evaluated based on the growth inhibition ring thereby appeared.

[3] = test system: Candida albicans MTU 12021; assay: Checker board method, combined use of Compound 1 with miconazole or ketoconazole; assay type: cell-based; conditions: for synergistic effects of combined use with Compound 1 (checker board): agent combined with Compound 1, Tables 2 and 3; for Growth: Compound 1 0; as to growth: key: +: Growth observed; -: No growth observed
Method: as §1, §2, §3, §4, §5

[4] = MTU12021, single use, Sabouraud agar, 37° C., 48 hours
[5] = Sabouraud agar, 37° C., 48 hours

C[C@@H]1[C@H](O)[C@@H](C)/C=C/C=C/C=C/C=C/C=C/C=C/C=C/[C@H](O[C@@H]2O[C@H](C)[C@@H](O)[C@H](N)[C@@H]2O)C[C@@H]2O[C@](O)(C[C@@H](O)C[C@@H](O)[C@H](O)CC[C@@H](O)C[C@@H](O)CC(=O)O[C@H]1C)C[C@H](O)[C@H]2C(=O)O [Amphotericin B]
MIC [1, 4]: 3.13 µg/mL
Minimum Inhibitory Concentration (MIC) of the agent combined with Compound 1 [1, 5]: 3.13 µg/mL

CCC(C)(C)c1ccc(CN(C)Cc2cccc3ccccc23)cc1 [Compound 2, N-methyl-N-4-tert-pentylbenzyl-1-naphthalenemethylamine]
MIC [1, 4]: > 100 µg/mL
Minimum Inhibitory Concentration (MIC) of miconazole in combination with the arylmethylamine compound [1]: 3.13 µg/mL
death (ICR male mice): no instance of death

CN(Cc1ccc(C(C)(C)C)cc1)Cc1ccc(F)c2ccccc12 [Compound 3, N-4-tert-butylbenzyl-N-methyl-4-fluoro-1-naphthalenemethylamine]
MIC [1, 4]: > 100 µg/mL
Minimum Inhibitory Concentration (MIC) of miconazole in combination with the arylmethylamine compound [1]: 6.25 µg/mL

CN(Cc1ccc(C(C)(C)C)cc1)Cc1csc2ccccc12 [Compound 4, N-4-tert-butylbenzyl-N-methyl-3-benzo[b]thiophenemethylamine]
MIC [1, 4]: > 100 µg/mL
Minimum Inhibitory Concentration (MIC) of miconazole in combination with the arylmethylamine compound [1]: 1.56 µg/mL

CN(Cc1ccc(C(C)(C)C)s1)Cc1cccc2ccccc12 [Compound 5, N-methyl-N-(1-naphthalenemethyl)-5-tert-butyl-2-thiophenemethylamine]
MIC [1, 4]: > 100 µg/mL
Minimum Inhibitory Concentration (MIC) of miconazole in combination with the arylmethylamine compound [1]: 3.13 µg/mL

CN(C/C=C/c1ccccc1)Cc1cccc2ccccc12 [Compound 6, (E)-N-cinnamyl-N-methyl-1-naphthalenemethylamine]
MIC [1, 4]: > 100 µg/mL
Minimum Inhibitory Concentration (MIC) of miconazole in combination with the arylmethylamine compound [1]: 1.56 µg/mL
effects of combined use with miconazole or ketoconazole [2]: remarkable synergistic effects

CN(C/C=C/C#CC(C)(C)C)Cc1cccc2ccccc12 [Compound 7, (E)-N-[6,6-dimethyl-2-hepten-4-ynyl)-N-methyl-1-naphthalenemethylamine]
MIC [1, 4]: > 100 µg/mL
Minimum Inhibitory Concentration (MIC) of miconazole in combination with the arylmethylamine compound [1]: 0.78 µg/mL
effects of combined use with miconazole or ketoconazole [2]: remarkable synergistic effects

Clc1cc(Cl)c(OCC#CI)cc1Cl [Haloprozin]
MIC [1, 4]: > 100 µg/mL
Minimum Inhibitory Concentration (MIC) of the agent combined with Compound 1 [1, 5]: > 100 µg/mL

O=C(CCCCCCCCC#CI)Oc1ccccc1 [KP-4249]
MIC [1, 4]: 100 µg/mL
Minimum Inhibitory Concentration (MIC) of the agent combined with Compound 1 [1, 5]: 100 µg/mL

O=[N+]([O-])c1c(Cl)cccc1-c1c[nH]cc1Cl [Pyrrolnitrin]
MIC [1, 4]: 50 µg/mL
Minimum Inhibitory Concentration (MIC) of the agent combined with Compound 1 [1, 5]: 50 µg/mL

Cc1cc(O)c2c(c1)O[C@@]1(C)CC[C@H]3C(C)(C)CCC[C@]34CO[C@@H]2[C@H]41 [Siccanine]
MIC [1, 4]: 25 µg/mL
Minimum Inhibitory Concentration (MIC) of the agent combined with Compound 1 [1, 5]: 25 µg/mL

Clc1ccccc1C(c1ccccc1)(c1ccccc1)n1ccnc1 [clotrimazole]
MIC ([1]; MTU12021, 48 h): 12.5 µg/mL
synergistic effects of combined use with Compound 1 [1]: remarkable synergistic effects
Minimum Inhibitory Concentration (MIC) of the agent combined with Compound 1 [1, 5]: 3.13 µg/mL

Clc1ccc(COC(Cn2ccnc2)c2ccc(Cl)cc2Cl)cc1 (centres unmarked) [econazole]
MIC [1, 4]: 25 µg/mL
synergistic effects of combined use with Compound 1 [1]: remarkable synergistic effects
Minimum Inhibitory Concentration (MIC) of the agent combined with Compound 1 [1, 5]: 1.56 µg/mL

Clc1ccc(C(Cn2ccnc2)OCc2c(Cl)cccc2Cl)c(Cl)c1 (centres unmarked) [isoconazole]
MIC [1, 4]: 25 µg/mL
synergistic effects of combined use with Compound 1 [1]: remarkable synergistic effects
Minimum Inhibitory Concentration (MIC) of the agent combined with Compound 1 [1, 5]: 1.56 µg/mL

CC(=O)N1CCN(c2ccc(OCC3COC(Cn4ccnc4)(c4ccc(Cl)cc4Cl)O3)cc2)CC1 (centres unmarked) [ketoconazole, reference compound]
synergistic effects of combined use with Compound 1 (checker board) [3]: Remarkable syntergistic effects
Growth ([3]; ketoconazole 0.1 μg/ml): +
Growth ([3]; ketoconazole 0.2 μg/ml): +
Growth ([3]; ketoconazole 0.39 μg/ml): +
Growth ([3]; ketoconazole 0.78 μg/ml): +
Growth ([3]; ketoconazole 1.56 μg/ml): +
Growth ([3]; ketoconazole 3.13 μg/ml): +
Growth ([3]; ketoconazole 12.5 μg/ml): +
Growth ([3]; ketoconazole 25 μg/ml): -
Growth ([3]; ketoconazole 50 μg/ml): -
Growth ([3]; ketoconazole 100 μg/ml): -

Clc1ccc(COC(Cn2ccnc2)c2ccc(Cl)cc2Cl)c(Cl)c1 (centres unmarked) [miconazole, reference compound]
synergistic effects of combined use with Compound 1 (checker board) [3]: Remarkable syntergistic effects
Growth ([3]; miconazole 0.39 μg/ml): +
Growth ([3]; miconazole 0.78 μg/ml): +
Growth ([3]; miconazole 1.56 μg/ml): +
Growth ([3]; miconazole 3.13 μg/ml): +
Growth ([3]; miconazole 12.5 μg/ml): +
Growth ([3]; miconazole 25 μg/ml): +
Growth ([3]; miconazole 50 μg/ml): -
Growth ([3]; miconazole 100 μg/ml): -
MIC ([1]; MTU12021, 48 h): 25 µg/mL
synergistic effects of combined use with Compound 1 [1]: remarkable synergistic effects
Minimum Inhibitory Concentration (MIC) of the agent combined with Compound 1 [1, 5]: 1.56 µg/mL
growth inhibition ring, disk alone ([2]; 50 mg per disk (so in the source), 37° C., 96 hours, FIG. 2): a complete inhibitory ring with a small diameter and an incomplete inhibitory ring with a large diameter

Clc1ccc(CO/N=C(\Cn2ccnc2)c2ccc(Cl)cc2Cl)c(Cl)c1 [oxiconazole]
synergistic effects of combined use with Compound 1 [1]: remarkable synergistic effects
